From patent publication US6781015B2, “Aminobenzophenones and photopolymerizable compositions including the same” (Albemarle Corporation, priority 1997, dated 2004)
Where “and” joins values, the source holds several entries; their conditions need not be identical. Equal values may be shown once.

How the values were obtained:
[1] = system: Salmonella typhimurium tester strain TA98; details: strain TA98 with added mammalian metabolic activation, adequate concentrations of test material; cited from earlier work
[2] = system: Salmonella typhimurium tester strain TA98; assay: Salmonella/Mammalian-Microsome Reverse Mutation Screening Assay (Ames Test); assay type: cell-based; set-up: key to Background lawn: 1 = normal; 2 = slightly reduced; 3 = moderately reduced; 4 = extremely reduced; 5 = absent; 6 = obscured by precipitate; sp = slight precipitate; mp = moderate precipitate (requires hand count); hp = heavy precipitate (requires hand count); details: for Individual plate counts, revertants per plate: plates 1-3
Experimental: Mutagenicity can be measured by a variety of assays. The most commonly used method is the Salmonella/Mammalian-Microsome Reverse Mutation Screening Assay (Ames Test), which commonly uses four or five strains of Salmonella bacteria to detect different types of mutations.
TMMK, TEMK and MEAB were evaluated for the ability to induce reverse mutations at the histidine locus in the genome of a specific Salmonella typhimurium tester strain in the presence of an exogenous metabolic activation system of mammalian microsomal enzymes derived from Aroclor™-induced rat liver (S9). The tester strain used in the mutagenicity assay was Salmonella typhimurium tester strain TA98 with added activation. The assay was conducted using eight doses of the test article, along with the appropriate vehicle and positive controls in the presence of S9 mix (S9 homogenate was purchased from Molecular Toxicology, Inc., Annapolis, Md. 21401, Batch 0646, 43.4 mg of protein per ml). Positive controls were also plated in the absence of S9 mix. All doses of test article, vehicle, and positive controls were plated in triplicate.
(§1) The test article TMMK was stored at room temperature. Acetone (CAS# 67-64-1, Fisher Scientific Co., Lot 961140) was used as the vehicle. At 20 mg per ml, which was the most concentrated stock solution which could be prepared, the test article formed a clear, light yellow solution. The test article remained a solution in all succeeding dilutions prepared for the mutagenicity assay. The maximum aliquot of acetone which can be used in the test system is 200 μl. Thus, the maximum concentration which could be tested was 4,000 μg per plate. The test article and vehicle controls were plated using a 200 μl plating aliquot. Positive control articles were plated using 50 μl plating aliquot.
The test article TEMK was stored at room temperature. Acetone (CAS# 67-64-1, Fisher Scientific Co., Lot 961140) was used as the vehicle. At 100 mg per ml, which was the most concentrated stock solution prepared, the test article formed a clear, yellow solution. The test article remained a solution in all succeeding dilutions prepared for the mutagenicity assay. The test article, vehicle controls and positive control articles were plated using a 50 μl plating aliquot.
The test article MEAB was stored at room temperature. Acetone (CAS#67-64-1, Fisher Scientific Co., Lot 961140) was used as the vehicle. At 25 mg per ml, which was the most concentrated stock solution prepared, the test article formed a clear, light yellow solution. The test article remained a solution in all succeeding dilutions prepared for the mutagenicity assay. The test article and vehicle controls were plated using a 200 μl plating aliquot. Positive control articles were plated using a 50 μl plating aliquot.
The data are presented as individual plate counts along with a mean and standard deviation.

[3] = based on cancer studies in rats and mice; cited from earlier work
[4] = Most concentrated stock solution in acetone; assay type: physicochemical; details: clear, light yellow solution
Experimental: as §1

[5] = TA98, rat liver S9, 3.33 μg/plate
[6] = TA98, rat liver S9, 10.0 μg/plate
[7] = TA98, rat liver S9, 33.3 μg/plate
[8] = TA98, rat liver S9, 100 μg/plate
[9] = TA98, rat liver S9, 333 μg/plate
[10] = TA98, rat liver S9, 1000 μg/plate
[11] = TA98, rat liver S9, 3330 μg/plate
[12] = TA98, rat liver S9, 4000 μg/plate
[13] = tester strain TA98 in the presence of S9 mix

CN(C)c1ccc(C(=O)c2ccc(N(C)C)cc2)cc1 [TMMK, 4,4′-bis(dimethylamino)benzophenone]
Ames Test outcome in the literature [1]: consistently found to have mutations | Mean revertants per plate [2, 5]: 22 revertants per plate | Individual plate counts, revertants per plate [2, 5]: 14 revertants per plate and 29 revertants per plate and 24 revertants per plate | Mean revertants per plate [2, 6]: 16 revertants per plate | Individual plate counts, revertants per plate [2, 6]: 9 revertants per plate and 19 revertants per plate (2×) | Mean revertants per plate [2, 7]: 31 revertants per plate | Individual plate counts, revertants per plate [2, 7]: 21 revertants per plate and 35 revertants per plate and 37 revertants per plate | Mean revertants per plate [2, 8]: 17 revertants per plate | Individual plate counts, revertants per plate [2, 8]: 16 revertants per plate and 12 revertants per plate and 22 revertants per plate | Mean revertants per plate [2, 9]: 18 revertants per plate | Individual plate counts, revertants per plate [2, 9]: 18 revertants per plate and 23 revertants per plate and 12 revertants per plate | Mean revertants per plate [2, 10]: 31 revertants per plate | Individual plate counts, revertants per plate [2, 10]: 35 revertants per plate and 26 revertants per plate and 33 revertants per plate | Mean revertants per plate [2, 11]: 79 revertants per plate | Individual plate counts, revertants per plate [2, 11]: 78 revertants per plate (2×) and 82 revertants per plate | Mean revertants per plate [2, 12]: 81 revertants per plate | Individual plate counts, revertants per plate [2, 12]: 80 revertants per plate and 70 revertants per plate and 93 revertants per plate | Background lawn ([2]; Table 1, TA98, rat liver S9, 3.33 μg/plate): 1 | Background lawn ([2]; Table 1, TA98, rat liver S9, 10.0 μg/plate): 1 | Background lawn ([2]; Table 1, TA98, rat liver S9, 33.3 μg/plate): 1 | Background lawn ([2]; Table 1, TA98, rat liver S9, 100 μg/plate): 1 sp | Background lawn ([2]; Table 1, TA98, rat liver S9, 333 μg/plate): 1 mp | Background lawn ([2]; Table 1, TA98, rat liver S9, 1000 μg/plate): 1 mp | Background lawn ([2]; Table 1, TA98, rat liver S9, 3330 μg/plate): 6 mp | Background lawn ([2]; Table 1, TA98, rat liver S9, 4000 μg/plate): 6 mp | Background lawn ([2]; Table 2 summary, TA98, rat liver S9, 3.33 μg/plate): 1 | Background lawn ([2]; Table 2 summary, TA98, rat liver S9, 10.0 μg/plate): 1 | Background lawn ([2]; Table 2 summary, TA98, rat liver S9, 33.3 μg/plate): 1 | Background lawn ([2]; Table 2 summary, TA98, rat liver S9, 100 μg/plate): 1 sp | Background lawn ([2]; Table 2 summary, TA98, rat liver S9, 333 μg/plate): 1 mp | Background lawn ([2]; Table 2 summary, TA98, rat liver S9, 1000 μg/plate): 1 mp | Background lawn ([2]; Table 2 summary, TA98, rat liver S9, 3330 μg/plate): 6 mp | Background lawn ([2]; Table 2 summary, TA98, rat liver S9, 4000 μg/plate): 6 mp | Ames Test outcome (mutagenicity) [2, 13]: mutagenic | Increase in the number of revertants per plate [2, 13]: 3.9 fold | National Toxicology Program carcinogen listing [3]: reasonably anticipated to be a carcinogen | Most concentrated stock solution which could be prepared [4]: 20 mg per ml
